Data published in patent US4080442A, “Disaccharide derivatives used in the treatment of hepatic diseases” (Meito Sangyo Kabushiki Kaisha, priority 1975, dated 1978).

System: experimental hepatitis induced by D-galactosamin
Experiment: Conjoint use of glutathione in experimental hepatitis induced by D-galactosamin
Type: in vivo, female Wistar rats
Settings: GSH 5 mg/rat, GSSH 5 mg/rat, AS 75 mg/rat, mixtures: GSH or GSSH 5 mg/rat + AS 75 mg/rat, average value ± S.E.
Procedure: Groups each of 10 female Wistar rats of 100 - 120 gram body weight put on a fast of 2 hours prior to the experiment were used. […] One hour after these administrations, all of the groups were administered with D-galactosamin. The administration of the D-galactosamin was performed in the following manner. […] After completion of this administration, the fasted state was continued. Twenty-two hours after the administration of the D-galactosaminhydrochloride, blood was taken from the abdominal aorta and measured for the GOT, GPT, bilirubin and blood glucose contained in the blood plasma. The GOT and GPT were measured by the Reitman-Frankel Method, the bilirubin by the Evelyn-Malloy Method and the blood glucose by the […].
The effects obtained by using injection mixtures of either a reduced type glutathione or an oxidized type glutathione and a sucrose derivative obtained by the method of preparing a pharmaceutical composition of the hereinafter-given Example 11 in treating animals suffering from hepatitis induced by D-galactosamin were tested by operating as in I., above.

**Q.** `N[C@@H](CCC(=O)N[C@@H](CS)C(=O)NCC(=O)O)C(=O)O` [GSH, Reduced type glutathione] was tested. Which GPT (control 1830±432) did it give?
**A.** 1660±472 Karman U.

**Q.** What about the GOT (control 2748±490) of the same molecule?
**A.** 2510±510 Karmen U.
